Results taken from patent publication US8987250B2 (Gilead Sciences, Inc., priority 2012, dated 2015).

Test system: HIV-IIIb
Assay: Test A: Antiviral Assay in MT4 Cells
Assay type: cell-based
Conditions: Human immunodeficiency virus 1, IIIB, MT4, 120 h
In short: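 Read-out: CellTiter-Glo chemiluminescence after 5-day incubation at 37 °C. Compounds tested as 3-fold serial dilutions (10 concentrations, quadruplicate) in RPMI 1640 with 10% FBS, on MT-4 cells pre-infected at 37 °C with HIV-IIIb at 0.004 m.o.i.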

| Compound | EC50 [nM] |
| --- | --- |
| Cc1cc2nc(N3CCOC(c4ccccc4)C3)sc2c(-c2ccc(Cl)cc2)c1[C@H](OC(C)(C)C)C(=O)O (stereo partly drawn) [Compound 327, (2S)-2-tert-butoxy-2-(7-(4-chlorophenyl)-5-methyl-2-(2-phenylmorpholino)benzo[d]thiazol-6-yl)acetic acid] | 162 |

Same assay, conditions: Human immunodeficiency virus 1, IIIB, MT4, 120 h, Table 2; MT-4 cells infected with HIV-IIIb, 5 days of incubation, CellTiter-Glo; read-out: EC50

| EC50 [nM] | Compound |
| --- | --- |
| 44 | COc1ccc(-c2cc(-c3nc4cc(C)c([C@H](OC(C)(C)C)C(=O)O)c(-c5ccc(Cl)cc5)c4s3)c(C)nn2)cc1OC [Compound 331] |
| 5 | Cc1cc2nc(-c3ccnc(N4CCC(C)(O)CC4)n3)sc2c(-c2ccc(Cl)cc2)c1[C@H](OC(C)(C)C)C(=O)O [Compound 332] |
| 5 | Cc1cc2nc(-c3ccnc(N4CCC(N(C)C)CC4)n3)sc2c(-c2ccc(Cl)cc2)c1[C@H](OC(C)(C)C)C(=O)O [Compound 334] |
| 14 | Cc1cc2nc(-c3cc(-c4ccc5c(cnn5C)c4)nnc3C)sc2c(-c2ccc(Cl)cc2)c1[C@H](OC(C)(C)C)C(=O)O [Compound 335] |
| 4 | Cc1cc2nc(-c3ccnc(N4CCN(C)C[C@@H]4C)n3)sc2c(-c2ccc(Cl)cc2)c1[C@H](OC(C)(C)C)C(=O)O [Compound 337] |
| 11 | COc1ccc(-c2cc(-c3nc4cc(C)c([C@H](OC(C)(C)C)C(=O)O)c(-c5ccc(Cl)cc5)c4s3)cnn2)cc1OC [Compound 338] |
| 11 | Cc1cc2nc(-c3ccnc(N4CCN(C5CC5)CC4)n3)sc2c(-c2ccc(Cl)cc2)c1[C@H](OC(C)(C)C)C(=O)O [Compound 339] |
| 9 | Cc1cc2nc(-c3ccnc(C4CCOCC4)n3)sc2c(-c2ccc(Cl)cc2)c1[C@H](OC(C)(C)C)C(=O)O [Compound 340] |
| 14 | Cc1cc2nc(-c3ccnc(C4=CCOCC4)n3)sc2c(-c2ccc(Cl)cc2)c1[C@H](OC(C)(C)C)C(=O)O [Compound 341] |
| 5 | Cc1cc2nc(-c3ccnc(C4=CCN(C)CC4)n3)sc2c(-c2ccc(Cl)cc2)c1[C@H](OC(C)(C)C)C(=O)O [Compound 342] |
| 26 | Cc1cc2nc(-c3ccnc(N4CCOCC4)n3)sc2c(-c2ccc(Cl)cc2)c1[C@H](OC(C)(C)C)C(=O)O [Compound 343] |
| 6 | Cc1cc2nc(-c3ccnc(N4CCN(C)CC4)n3)sc2c(-c2ccc(Cl)cc2)c1[C@H](OC(C)(C)C)C(=O)O [Compound 344] |
| 28 | COc1cc(-c2cc(-c3nc4cc(C)c([C@H](OC(C)(C)C)C(=O)O)c(-c5ccc(Cl)cc5)c4s3)ccn2)cnc1OC [Compound 345] |
| 11 | Cc1cc2nc(-c3ccnc(-c4cnn(C(C)(C)C)c4)n3)sc2c(-c2ccc(Cl)cc2)c1[C@H](OC(C)(C)C)C(=O)O [Compound 346] |
| 42 | Cc1cc2nc(-c3ccnc(-c4cnn(C)c4C)n3)sc2c(-c2ccc(Cl)cc2)c1[C@H](OC(C)(C)C)C(=O)O [Compound 347] |
| 30 | Cc1cc2nc(-c3ccc4c(cnn4C4CCOCC4)c3)sc2c(-c2ccc(Cl)cc2)c1[C@H](OC(C)(C)C)C(=O)O [Compound 348] |
| 42 | Cc1cc2nc(-c3ccc4[nH]ncc4c3)sc2c(-c2ccc(Cl)cc2)c1[C@H](OC(C)(C)C)C(=O)O [Compound 349] |

| Compound | EC50 [nM] |
| --- | --- |
| Cc1cc2nc(-c3ccc4nnn(C)c4c3)sc2c(-c2ccc(Cl)cc2)c1[C@H](OC(C)(C)C)C(=O)O [Compound 316, (S)-2-tert-butoxy-2-(7-(4-chlorophenyl)-5-methyl-2-(1-methyl-1H-benzo[d][1,2,3]triazol-6-yl)benzo[d]thiazol-6-yl)acetic acid] | 18 |
| Cc1cc2nc(-c3ccn4c(C)nnc4c3)sc2c(-c2ccc(Cl)cc2)c1[C@H](OC(C)(C)C)C(=O)O [Compound 317, (S)-2-tert-butoxy-2-(7-(4-chlorophenyl)-5-methyl-2-(3-methyl-[1,2,4]triazolo[4,3-a]pyridin-7-yl)benzo[d]thiazol-6-yl)acetic acid] | 13 |
| Cc1cc2nc(-c3ccn4nnc(C)c4c3)sc2c(-c2ccc(Cl)cc2)c1[C@H](OC(C)(C)C)C(=O)O [Compound 318, (S)-2-tert-butoxy-2-(7-(4-chlorophenyl)-5-methyl-2-(3-methyl-[1,2,3]triazolo[1,5-a]pyridin-5-yl)benzo[d]thiazol-6-yl)acetic acid] | 10 |
| Cc1cc2nc(-c3ccn4c(C)nc(C)c4c3)sc2c(-c2ccc(Cl)cc2)c1[C@H](OC(C)(C)C)C(=O)O [Compound 319, (S)-2-tert-butoxy-2-(7-(4-chlorophenyl)-2-(1,3-dimethylimidazo[1,5-a]pyridin-7-yl)-5-methylbenzo[d]thiazol-6-yl)acetic acid] | 5 |
| Cc1cc2nc(N3CCOC(C)(c4ccc(Cl)cc4)C3)sc2c(-c2ccc(Cl)cc2)c1[C@H](OC(C)(C)C)C(=O)O (stereo partly drawn) [Compound 322, (2S)-2-tert-butoxy-2-(7-(4-chlorophenyl)-2-(2-(4-chlorophenyl)-2-methylmorpholino)-5-methylbenzo[d]thiazol-6-yl)acetic acid] | 640 |
| Cc1ccc(C2(C)CN(c3nc4cc(C)c([C@H](OC(C)(C)C)C(=O)O)c(-c5ccc(Cl)cc5)c4s3)CCO2)cc1 (stereo partly drawn) [Compound 323, (2S)-2-tert-butoxy-2-(7-(4-chlorophenyl)-5-methyl-2-(2-methyl-2-p-tolylmorpholino)benzo[d]thiazol-6-yl)acetic acid] | 384 |
| Cc1cc2nc(N3CCOC(c4ccc5c(cnn5C)c4)C3)sc2c(-c2ccc(Cl)cc2)c1[C@H](OC(C)(C)C)C(=O)O (stereo partly drawn) [Compound 324, (2S)-2-tert-butoxy-2-(7-(4-chlorophenyl)-5-methyl-2-(2-(1-methyl-1H-indazol-5-yl)morpholino)benzo[d]thiazol-6-yl)acetic acid] | 13 |
| Cc1cc2nc(N3CCO[C@H](c4ccc5c(cnn5C)c4)C3)sc2c(-c2ccc(Cl)cc2)c1[C@H](OC(C)(C)C)C(=O)O [Compound 325, (S)-2-tert-butoxy-2-(7-(4-chlorophenyl)-5-methyl-2-((R)-2-(1-methyl-1H-indazol-5-yl)morpholino)benzo[d]thiazol-6-yl)acetic acid] | 10 |
| Cc1cc2nc(N3CCO[C@@H](c4ccc5c(cnn5C)c4)C3)sc2c(-c2ccc(Cl)cc2)c1[C@H](OC(C)(C)C)C(=O)O [Compound 326, (S)-2-tert-butoxy-2-(7-(4-chlorophenyl)-5-methyl-2-((S)-2-(1-methyl-1H-indazol-5-yl)morpholino)benzo[d]thiazol-6-yl)acetic acid] | 66 |
| Cc1cc2nc(-c3ccc4nn(C5COC5)cc4c3)sc2c(-c2ccc(Cl)cc2)c1[C@H](OC(C)(C)C)C(=O)O [Compound 328, (S)-2-tert-butoxy-2-(7-(4-chlorophenyl)-5-methyl-2-(2-(oxetan-3-yl)-2H-indazol-5-yl)benzo[d]thiazol-6-yl)acetic acid] | 44 |
| Cc1cc2nc(-c3ccc4c(cnn4C4COC4)c3)sc2c(-c2ccc(Cl)cc2)c1[C@H](OC(C)(C)C)C(=O)O [Compound 329, (S)-2-tert-butoxy-2-(7-(4-chlorophenyl)-5-methyl-2-(1-(oxetan-3-yl)-1H-indazol-5-yl)benzo[d]thiazol-6-yl)acetic acid] | 14 |
| Cc1cc2nc(-c3ccc4c(c3)c(C(C)C)nn4C)sc2c(-c2ccc(Cl)cc2)c1[C@H](OC(C)(C)C)C(=O)O [Compound 330, (S)-2-tert-butoxy-2-(7-(4-chlorophenyl)-2-(3-isopropyl-1-methyl-1H-indazol-5-yl)-5-methylbenzo[d]thiazol-6-yl)acetic acid] | 19 |
